# Experimental data: US7417034B2, “Pharmaceutically active uridine esters” (Trommsdorff GmbH & Co. KG Arzeneimittel, priority 2001, dated 2008)
# Entries after “also recorded” stand apart in the source; their conditions may differ. Like-named read-outs stand apart in the source and are kept apart here.
# Columns and labels:
# [1] = test system: hippocampal pyramid cells; test: in-vitro Hippocampus cuts: glucose-induced over-sensitiveness of pyramid cells (population spike); assay type: cell-based, rats; settings: 30 mM glucose; for IC50: amplitude of population spike, read-out: calculated IC50-value, reduction of glucose-induced over-sensitiveness; for concentration range of activity: population spike
# Excerpt: The model used to determine the effect of the compounds of the present invention on treating diabetes and/or polyneuropathy comprises the use of in-vitro Hippocampus cuts for detecting the over-sensitiveness of pyramid cells due to the enhancement of the glucose concentration. Said over-sensitiveness could be antagonized dose-dependent by the use of a compound of the general formula (I).
# The Hippocampus cuts of rats present a validated model for determination of interaction between a drug substance which is in direct contact with neuronal tissue. The interaction between a pharmaceutically active compound and the brain tissue can be examined directly, because of the maintenance of the three dimensional structure of the tissue within the in-vitro Hippocampus cut. Said compounds act on a special population of nerve cells, the pyramid cells of the Hippocampus. It is known that the synapse between pyramid cells and Schaffer-collaterals (which can be electrically stimulated) use the neurotransmitter glutamate for the process of signal transduction. The result of the electric stimulation, the so called population spike, represents the amount of activated pyramid cells. Other known models allow the in-vitro determination of a neuronal network only within a time frame of up to 8 hours. The advantage of this model is that neuronal network can be analyzed in-vitro over a much longer period after chemical or electric provocation of the cells. The cells are brought to an elevated level of stimulation which allows a long term measurement of pharmacologically active compounds under patho-physiologic conditions (W. Dimpfel et al., Antimicrobial Agents and Chemotherapy 1991, 1142-1146; W. Dimpfel et al., Eur. J. Med. Res. 1996, 1, 523-527).
# Within the present method the level of stimulation was elevated by the use of an increased concentration of glucose in the superfusion medium in order to measure the antagonistic effect of the compounds of the present invention. Because of the fact that α-lipoic acid had been applied to this method (W. Dimpfel et al., Eur. J. Med. Res. 1996, 1, 523-527), compound 5′ was selected as a close related compound in order to produce reasonable results when comparing α-lipoic acid and uridine with compound 5′. Thus, α-lipoic acid and uridine were selected as reference.
# 21 adult male CD rats had been used within the present studies. The Hippocampus was isolated after anesthetization and exsanguination of the test animals. The middle part of the Hippocampus was fixed by means of a glue in phosphate-buffered saline (NaCl: 124 mM, KCl: 5 mM, CaCl2: 2 mM, MgSO4: 2 mM, NaH2PO4: 1.25 mM, NaHCO3: 26 mM, glucose: 10 mM; control solution: ACSF; Carl Roth, Karlsruhe, Germany). The Hippocampus was subsequent cut into slides of […] by means of a Vibratom (Rhema Labortechnik). The Hippocampus cuts were stored at least one hour before the test runs in an incubation chamber under carbogen (S. J. Schiff, G. G. Somjen, Brain Research 1985, 345, 279-284).
# The experiment was carried out in a so called “Base Unit with Haas Top” (Medical Systems Corporation, U.S.A.) at a temperature of 35° C. according to the protocol of H. L. Haas and R. W. Greene (Neurotransmitter and cortical function; ed. M. Avoli, T. A. Reader, R. W. Dykes and P. Gloor, pp. 483-494, Plenum Publishing Corp.). The Hippocampus cut was placed on a piece of gauze and perfused by means of peristaltic pumps. The test apparatus was flushed with carbogen (flow rate: 200 ml per hour) in order to maintain the necessary oxygen supply.
# The CA2-region was stimulated by means of a stimulus generator (laboratory computer, Pro Science) and a bipolar concentric steel electrode (Rhodes Medical Systems, U.S.A.). A pulse width of 200 μs was used and the amperage was constantly kept at 200 μA. The stimulus generator released four single stimulation signals within intervals of 20 seconds which released a total number of four population spikes in the Hippocampus cut. […]
# [2] = test system: permanent MCA occlusion in NMRI mice; settings: for infarct area, Mean: evaluated 2 days after, vehicle only 29.89; for effect on infarct area (in words): versus controls
# Protocol: The neuroprotective effects of α-lipoic acid and more pronounced of dihydrolipoic acid are well known (P. Wolz, J. Krieglstein, Lipoic Acid in Health and Disease, New York, Basel, Hong Kong, Marcel Dekker Inc., 1997, pp. 205-225). Thus, dihydrolipoic acid was chosen as a positive control for comparison reasons.
# Permanent middle cerebral artery (MCA) occlusion was performed in male NMRI mice (12 to 17 animals per group) according to the method described by Welsh et al. (J. Neurochem. 1987, 846-851). Briefly, after the mice were anesthetized with tribromoethanol (600 mg/kg intraperitoneally), a small hole was drilled in the skull to expose the middle cerebral artery. The stem of the middle cerebral artery and both branches were permanently occluded by electrocoagulation. Body temperature was maintained at 37° C.±1° C. with a heating lamp during the surgical procedure. Afterwards, the mice were kept at an environmental temperature of 30° C. for 2 hours after MCA occlusion.
# For histologic evaluation, the mice were anesthetized again with tribromoethanol and perfused intraperitoneally with a 1.5% solution of neutral red (0.5 ml) 2 days after middle cerebral artery occlusion. The brains were removed and stored in a fixative (4% formalin in phosphate buffer solution, pH 7.4) for 24 hours.
# The tissue on the brain surface unstained by neutral red was determined (in square millimeters) as infarcted surface area by means of an image analyzing system (Kontron, Eching, Germany) according to the publication of C. Backhauβ.
# The injection of compound 5′, dihydrolipoic acid, and the vehicle only was performed intraperitoneally 1 hour before MCA occlusion. Compound 5′ and dihydrolipoic acid were dissolved in 25% macrogol 400 (vehicle). The injected volume was always 0.25-0.30 ml per mouse. Doses of 100, 150, and 500 mg/kg compound 5′ and 150 mg/kg dihydrolipoic acid were used. The control group received the vehicle (0.25-0.30 ml 25% macrogol 400 per mouse) only.
# The differences between compound 5′-treated, dihydrolipoic acid-treated, and vehicle-treated animals were evaluated statistically according to the ANOVA and DUNCAN test.
# [3] = test system: dopamine and DOPAC concentration in the Striatum; test: Dopamine and DOPAC concentration in rat Striatum, sodium malonate neurotoxicity model; assay type: in vivo, Wistar rats
# Excerpt: (§1) This example was selected to determine the effect of the compounds of the present invention on the concentration of dopamine its metabolite 3,4-dihydroxyphenyl acetic acid (DOPAC) and 5-hydroxytryptamine (5-HT or Serotonin) and its metabolite 5-hydroxyindol acetic acid (5-HIAA) in the substantia nigra and the Striatum of Wistar rats (Charles River, Sulzbach Rosenberg).
# (§2) Said two brain regions were selected in order to examine dopaminergic neurons, because it is well known that said neurons are sensitive to neurotoxines which may cause M. Parkinson, Alzheimer, and Chorea Huntington. The method as described below was used to determine degenerative processes. Sodium malonate was used as a neurotoxic substance within said method.
# It is known that sodium malonate increases the release von dopamine in the Striatum of the test animals. Groups of six Wistar rats each have been used as test animals. Thus, the dopamine concentration can be used as an indicator in order to determine the harmful effect of neurotoxines.
# 100 mg of compound 5′ were dissolved in 5 ml 50% propan-1,2-diol (Merck, Darmstadt). Four 5 ml portions of compound 5′ were administered intraperitoneal to the test animals. The first portion was administered in the evening of the first test day, the second portion during the next morning, the third portion in the evening of the second test day and the late portion during the morning of the third test day. Thirty minutes after the last application of compound 5′ 2 μmol sodium malonate dissolved in physiologic sodium chloride solution were injected into the left Striatum by means of a precision pump (flow rate 0.5 μl/min.) after having anesthetized the rats (Ketamin: 80 mg/kg and Xylasin: 6-10 mg/kg).
# (§3) Four days after sodium malonate application, the Striatum and the treated and untreated part of the substantia nigra was separately excised, weighted, homogenized with perchloric acid, and centrifuged. Aliquots of the supernatants were subsequently subjected to HPLC and by the means of HPLC-ELCD the amount of dopamine, DOPAC, 5-HT, 5-HIM, and 3-methoxytyramine was […] measured.
# [4] = test system: 5-HT and 5-HIAA level in substantia nigra; test: 5-HT and 5-HIAA level in rat substantia nigra; assay type: in vivo, Wistar rats; settings: four i.p. portions
# Excerpt: as §1, §2
# 100 mg of compound 5′ were dissolved in 5 ml 50% propan-1,2-diol (Merck, Darmstadt). Four 5 ml portions of compound 5′ were administered intraperitoneal to the test animals. […]
# as §3
# [5] = 150 mg/kg intraperitoneally 1 hour before MCA occlusion
# [6] = compound alone, four i.p. portions, p<0.05
# [7] = 2 μmol sodium malonate injected into left Striatum, four days after, p<0.001
smiles,measurement,setting,value
"O=C(CCCC[C@H]1CCSS1)OC[C@H]1O[C@@H](n2ccc(=O)[nH]c2=O)[C@H](O)[C@@H]1O [Compound S-5, (2′R,3S,3′S,4′R,5′R)-5-[1,2]Dithiolan-3-yl-pentanoic acid 5′-(2,4-dioxo-3,4-dihydro-2H-pyrimidine-1-yl)-3′,4′-dihydroxy-tetrahydrofuran-2′-ylmethyl ester]",IC50,[1]; rat Hippocampus cuts,4 µM
same,concentration range of activity,[1]; rat Hippocampus cuts,1 to 10 µM
"O=C(CCCCC(S)CCS)OC[C@H]1O[C@@H](n2ccc(=O)[nH]c2=O)[C@H](O)[C@@H]1O (stereo partly drawn) [Compound 5′, (2′R,3′S,4′R,5′R)-6,8-Dimercapto-octanoic acid 5′-(2,4-dioxo-3,4-dihydro-2H-pyrimidine-1-yl)-3′,4′-dihydroxy-tetrahydrofuran-2′-ylmethyl ester]",reduction of the elevated stimulation level / over-sensitiveness (in words),[1]; rat Hippocampus cuts,able to reduce dose-dependent the elevated stimulation level; also recorded: most effectively treated; also recorded: able to significantly reduce the increased over-sensitiveness
same,IC50,[1]; rat Hippocampus cuts,5 µM
same,concentration range of activity,[1]; rat Hippocampus cuts,1 to 25 µM
same,"infarct area, Mean",[2]; 100 mg/kg intraperitoneally 1 hour before MCA occlusion,26.22 square millimeters
same,"infarct area, Mean",[2]; [5],27.00 square millimeters
same,effect on infarct area (in words),[2]; 500 mg/kg i.p.,no longer statistically reduced; also recorded: only a slight neuroprotective effect
same,"infarct area, Mean",[2]; 500 mg/kg intraperitoneally 1 hour before MCA occlusion,28.24 square millimeters
same,effect on infarcted area (in words),"[2]; lowest dose, 100 mg (100 mg/kg) i.p., versus vehicle",significantly reduced the infarcted area; also recorded: most pronounced
same,toxic effects in mice,"[2]; mice of the MCA occlusion study, 100-500 mg/kg i.p.",no toxic effects could be detected
same,compensation of malonate-induced dopamine depletion in rat striatum (in words),"[3]; FIG. 4, relatively low concentrations",can almost be compensated
same,change of the concentration of DOPAC in the Striatum,[3]; [6],+10%
same,change of the concentration of dopamine in the Striatum,[3]; [6],+18%
same,more dopamine in comparison to the application of malonate only,[3]; compound i.p. together with 2 μmol sodium malonate into left Striatum,+44%
same,5-HT concentration in rat substantia nigra (in words),[4]; FIG. 5a,significantly increase; also recorded: increased dramatically
same,5-HIAA level in rat substantia nigra (in words),[4]; FIG. 5b,significantly increase; also recorded: increased dramatically
"O=C(CCCC[C@@H]1CCSS1)OC[C@H]1O[C@@H](n2ccc(=O)[nH]c2=O)[C@H](O)[C@@H]1O [Compound R-5, (2′R,3R,3′S,4′R,5′R)-5-[1,2]Dithiolan-3-yl-pentanoic acid 5′-(2,4-dioxo-3,4-dihydro-2H-pyrimidine-1-yl)-3′,4′-dihydroxy-tetrahydrofuran-2′-ylmethyl ester]",IC50,[1]; rat Hippocampus cuts,8 µM
same,concentration range of activity,[1]; rat Hippocampus cuts,1 to 15 µM
"O=C(O)CCCC[C@@H](S)CCS (racemic) [dihydrolipoic acid, reference compound]",effect on infarct area (in words),[2]; 150 mg/kg i.p.,no effect at all
same,"infarct area, Mean",[2]; [5],27.94 square millimeters
O=c1ccn([C@@H]2O[C@H](CO)[C@@H](O)[C@H]2O)c(=O)[nH]1 [uridine],IC50,[1]; Rattus norvegicus,40 µM
same,reduction of the elevated stimulation level / over-sensitiveness (in words),[1]; rat Hippocampus cuts,able to reduce dose-dependent the elevated stimulation level; also recorded: only weaker effects; also recorded: much weaker effects
"O=C([O-])CC(=O)[O-].[Na+].[Na+] [malonate, sodium malonate, reference compound]",change of the concentration of DOPAC,[3]; [7],−30%
same,change of the concentration of dopamine,[3]; [7],−44%
"O=C(O)CCCCC1CCSS1 (stereo not drawn) [α-lipoic acid, reference compound]",reduction of the elevated stimulation level / over-sensitiveness (in words),[1]; rat Hippocampus cuts,able to reduce dose-dependent the elevated stimulation level; also recorded: only weaker effects; also recorded: much weaker effects
same,IC50,[1]; rat Hippocampus cuts,~200 µM
same,concentration range of activity,[1]; rat Hippocampus cuts,≤ 400 µM
